Values of other authors as cited in patent publication US5441941A, “1,2-dihydroellipticines with activity against CNS specific cancer” (The United States of America as represented by the …, priority 1993, dated 1995).
Where two headings read alike, the source gives them in different places.

Key:
mammary cancer = conditions: in vivo; cited from earlier work
[1] = tested on: mouse lymphoid leukemia L-1210; conditions: cited from earlier work
SF126 = conditions: human glioma line; cited from earlier work
SF375 = conditions: human glioma line; cited from earlier work
SF407 = conditions: human glioma line; cited from earlier work
Sarcoma 180 (solid) = conditions: in vivo; cited from earlier work
M5076 reticulosarcoma = conditions: cited from earlier work
P388 = conditions: cited from earlier work
B16 melanoma = conditions: cited from earlier work
colon carcinoma = conditions: cited from earlier work

Cc1c2cc[n+](C)cc2c(C)c2c1[nH]c1ccc(O)cc12 [Celiptium, 2-methyl-9-hydroxyellipticinium acetate]
effect against mammary cancer (mammary cancer): effective against mammary cancer

Cc1c2ccncc2c(C)c2c1[nH]c1ccc(O)cc12 [9-hydroxyellipticine, 9-hydroxy-5,11-dimethyl-(6H) -pyrido [4,3-b] carbazole]
antitumor activity ([1]; mouse L-1210 leukemia): considerably high antitumor properties

Cc1c2cc[n+](C)cc2c(C)c2c1[nH]c1ccc(O)cc12 [elliptinium]
in vitro activity (SF126): in vitro activity
in vitro activity (SF375): in vitro activity
in vitro activity (SF407): in vitro activity

Cc1c2ccncc2c(C)c2c1[nH]c1ccccc12 [ellipticine, 5, 11-dimethyl-6H-pyrido [4,3-b] carbazole]
antitumor activity ([1]; mouse L-1210 leukemia): effective against the tumor of animals
effect against tumor of animals (Sarcoma 180 (solid)): effective against the tumor of animals

CCN(CC)CC[n+]1ccc2c(C)c3[nH]c4ccc(O)cc4c3c(C)c2c1 [datelliptium, 2-[(2-diethylamino)ethyl]-9-hydroxyellipticinium]
antitumor activity ([1]; mouse, in vivo): in vivo activity
in vivo activity (M5076 reticulosarcoma): in vivo activity
in vivo activity (P388): in vivo activity
in vivo activity (B16 melanoma): in vivo activity
in vivo activity (colon carcinoma): in vivo activity
